Converted amounts (≈) assume the structure as drawn. A value given as a limit tells only on which side of the number the result lay.

In the first experiment the test system is Neisseria gonorrhoeae. Kind of experiment: Antimicrobial activity against Neisseria gonorrhoeae G strain harbouring type 2 topoisomerase GyrA S91F and ParE G410V mutant incubated for 20 to 24 hrs by CLSI protocol based broth microdilution method. Type of experiment: functional. As to conditions: time 20-24 hrs. (In broth dilution the organism is exposed to a series of concentrations in liquid medium.)
Turning to `COc1ccc2ncc(F)c(C[C@H](O)[C@H]3OC[C@H](NCc4ccc5c(c4)OCCO5)CO3)c2n1`, the MIC (usually the smallest concentration in the dilution series that meets the test's criterion for growth inhibition) was found to be 0.5 µg/mL (≈ 1.06 µM).

`COc1ccc2ncc(F)c(C[C@H](O)[C@H]3OC[C@H](NCc4ccc5c(n4)NC(=O)CO5)CO3)c2n1` had an MIC of 0.25 µg/mL (≈ 0.515 µM).

`COc1ccc2ncc(F)c(C[C@H](O)[C@H]3OC[C@H](NCc4cc5c(nn4)OCCO5)CO3)c2n1` registered an MIC greater than 32 µg/mL.

As for `CO/N=C(\C(=O)N[C@@H]1C(=O)N2C(C(=O)O)=C(CSc3nc(=O)c(O)nn3C)CS[C@H]12)c1csc(N)n1` [CEFTRIAXONE], the minimum inhibitory concentration (MIC) is no more than 0.001 µg/mL.

A further experiment concerns Neisseria gonorrhoeae. Kind of experiment: Antimicrobial activity against wild type Neisseria gonorrhoeae ATCC 49226 incubated for 20 to 24 hrs by CLSI protocol based broth microdilution method. Type of experiment: functional. As to conditions: time 20-24 hrs.
Compound `COc1ccc2ncc(F)c(C[C@H](O)[C@H]3OC[C@H](NCc4ccc5c(c4)OCCO5)CO3)c2n1` displayed an MIC of no more than 0.03 µg/mL.

In turn, `COc1ccc2ncc(F)c(C[C@H](O)[C@H]3OC[C@H](NCc4ccc5c(n4)NC(=O)CO5)CO3)c2n1` displayed an MIC of no more than 0.03 µg/mL.

In turn, `COc1ccc2ncc(F)c(C[C@H](O)[C@H]3OC[C@H](NCc4cc5c(nn4)OCCO5)CO3)c2n1` yielded an MIC of 32 µg/mL (≈ 67.6 µM).

Compound `CO/N=C(\C(=O)N[C@@H]1C(=O)N2C(C(=O)O)=C(CSc3nc(=O)c(O)nn3C)CS[C@H]12)c1csc(N)n1` [CEFTRIAXONE] returned a minimum inhibitory concentration (MIC) of 0.004 µg/mL (≈ 0.00721 µM).

The next experiment concerns Neisseria gonorrhoeae. The experiment in a line: Antimicrobial activity against wild type Neisseria gonorrhoeae F strain incubated for 20 to 24 hrs by CLSI protocol based broth microdilution method. Type of experiment: functional. To be noted: time 20-24 hrs.
`COc1ccc2ncc(F)c(C[C@H](O)[C@H]3OC[C@H](NCc4ccc5c(c4)OCCO5)CO3)c2n1` showed a minimal inhibitory concentration (MIC) of no more than 0.03 µg/mL.

On to `COc1ccc2ncc(F)c(C[C@H](O)[C@H]3OC[C@H](NCc4ccc5c(n4)NC(=O)CO5)CO3)c2n1`, for which the MIC was determined as 0.06 µg/mL (≈ 0.124 µM).

The compound `COc1ccc2ncc(F)c(C[C@H](O)[C@H]3OC[C@H](NCc4cc5c(nn4)OCCO5)CO3)c2n1` registered an MIC of 8 µg/mL (≈ 16.9 µM).

`CO/N=C(\C(=O)N[C@@H]1C(=O)N2C(C(=O)O)=C(CSc3nc(=O)c(O)nn3C)CS[C@H]12)c1csc(N)n1` [CEFTRIAXONE] registered an MIC of no more than 0.001 µg/mL.

For the next experiment, the system named is Neisseria gonorrhoeae. The experiment in a line: Antimicrobial activity against Neisseria gonorrhoeae K strain harbouring type 2 topoisomerase GyrA S91F, D95N and ParC S87R, S88P mutant incubated for 20 to 24 hrs by CLSI protocol based broth microdilution method. Type of experiment: functional. To be noted: time 20-24 hrs.
As for `COc1ccc2ncc(F)c(C[C@H](O)[C@H]3OC[C@H](NCc4ccc5c(c4)OCCO5)CO3)c2n1`, the MIC is no more than 0.03 µg/mL.

Take `COc1ccc2ncc(F)c(C[C@H](O)[C@H]3OC[C@H](NCc4ccc5c(n4)NC(=O)CO5)CO3)c2n1`: the MIC is no more than 0.03 µg/mL.

`COc1ccc2ncc(F)c(C[C@H](O)[C@H]3OC[C@H](NCc4cc5c(nn4)OCCO5)CO3)c2n1` gave a minimal inhibitory concentration (MIC) greater than 32 µg/mL.

The compound `CO/N=C(\C(=O)N[C@@H]1C(=O)N2C(C(=O)O)=C(CSc3nc(=O)c(O)nn3C)CS[C@H]12)c1csc(N)n1` [CEFTRIAXONE] came in with an MIC of 0.008 µg/mL (≈ 0.0144 µM).

For the next experiment, the system named is Neisseria gonorrhoeae. The experiment in a line: Antimicrobial activity against wild type Neisseria gonorrhoeae O strain incubated for 20 to 24 hrs by CLSI protocol based broth microdilution method. To be noted: time 20-24 hrs. Type of experiment: functional.
In turn, `COc1ccc2ncc(F)c(C[C@H](O)[C@H]3OC[C@H](NCc4ccc5c(c4)OCCO5)CO3)c2n1` came in with an MIC of no more than 0.03 µg/mL.

The compound `COc1ccc2ncc(F)c(C[C@H](O)[C@H]3OC[C@H](NCc4ccc5c(n4)NC(=O)CO5)CO3)c2n1` gave a minimum inhibitory concentration (MIC) of no more than 0.03 µg/mL.

`COc1ccc2ncc(F)c(C[C@H](O)[C@H]3OC[C@H](NCc4cc5c(nn4)OCCO5)CO3)c2n1`: 32 µg/mL (≈ 67.6 µM) was the least that counted as inhibitory (MIC).

Take `CO/N=C(\C(=O)N[C@@H]1C(=O)N2C(C(=O)O)=C(CSc3nc(=O)c(O)nn3C)CS[C@H]12)c1csc(N)n1` [CEFTRIAXONE]: the MIC stood at 0.004 µg/mL (≈ 0.00721 µM).

The test system of the next experiment is Neisseria gonorrhoeae. Kind of experiment: Antimicrobial activity against wild type Neisseria gonorrhoeae P strain incubated for 20 to 24 hrs by CLSI protocol based broth microdilution method. Type of experiment: functional. To be noted: time 20-24 hrs.
Compound `COc1ccc2ncc(F)c(C[C@H](O)[C@H]3OC[C@H](NCc4ccc5c(c4)OCCO5)CO3)c2n1` had a minimum inhibitory concentration (MIC) of no more than 0.03 µg/mL.

The compound `COc1ccc2ncc(F)c(C[C@H](O)[C@H]3OC[C@H](NCc4ccc5c(n4)NC(=O)CO5)CO3)c2n1` gave an MIC of no more than 0.03 µg/mL.

The compound `COc1ccc2ncc(F)c(C[C@H](O)[C@H]3OC[C@H](NCc4cc5c(nn4)OCCO5)CO3)c2n1` registered a minimum inhibitory concentration (MIC) of 32 µg/mL (≈ 67.6 µM).

`CO/N=C(\C(=O)N[C@@H]1C(=O)N2C(C(=O)O)=C(CSc3nc(=O)c(O)nn3C)CS[C@H]12)c1csc(N)n1` [CEFTRIAXONE] gave an MIC of no more than 0.001 µg/mL.

The subject of another experiment is Neisseria gonorrhoeae. The experiment in a line: Antimicrobial activity against wild type Neisseria gonorrhoeae V strain harbouring type 2 topoisomerase GyrA S91F, D95G and ParC S87R mutant incubated for 20 to 24 hrs by CLSI protocol based broth microdilution method. Type of experiment: functional. As to conditions: time 20-24 hrs.
In turn, `COc1ccc2ncc(F)c(C[C@H](O)[C@H]3OC[C@H](NCc4ccc5c(c4)OCCO5)CO3)c2n1` came in with an MIC of no more than 0.03 µg/mL.

Turning to `COc1ccc2ncc(F)c(C[C@H](O)[C@H]3OC[C@H](NCc4ccc5c(n4)NC(=O)CO5)CO3)c2n1`, the MIC was no more than 0.03 µg/mL.

The compound `COc1ccc2ncc(F)c(C[C@H](O)[C@H]3OC[C@H](NCc4cc5c(nn4)OCCO5)CO3)c2n1` came in with an MIC of 8 µg/mL (≈ 16.9 µM).

In the case of `CO/N=C(\C(=O)N[C@@H]1C(=O)N2C(C(=O)O)=C(CSc3nc(=O)c(O)nn3C)CS[C@H]12)c1csc(N)n1` [CEFTRIAXONE], the minimum inhibitory concentration (MIC) came to 0.002 µg/mL (≈ 0.00361 µM).

In a further experiment the test system is Neisseria gonorrhoeae. Kind of experiment: Antimicrobial activity against wild type Neisseria gonorrhoeae Y strain harbouring type 2 topoisomerase GyrA S91F, D95G and ParC S87R mutant incubated for 20 to 24 hrs by CLSI protocol based broth microdilution method. Type of experiment: functional. To be noted: time 20-24 hrs.
In turn, `COc1ccc2ncc(F)c(C[C@H](O)[C@H]3OC[C@H](NCc4ccc5c(c4)OCCO5)CO3)c2n1` came in with an MIC of no more than 0.03 µg/mL.

With `COc1ccc2ncc(F)c(C[C@H](O)[C@H]3OC[C@H](NCc4ccc5c(n4)NC(=O)CO5)CO3)c2n1`, the MIC is no more than 0.03 µg/mL.

`COc1ccc2ncc(F)c(C[C@H](O)[C@H]3OC[C@H](NCc4cc5c(nn4)OCCO5)CO3)c2n1` registered a minimum inhibitory concentration (MIC) of 16 µg/mL (≈ 33.8 µM).

The compound `CO/N=C(\C(=O)N[C@@H]1C(=O)N2C(C(=O)O)=C(CSc3nc(=O)c(O)nn3C)CS[C@H]12)c1csc(N)n1` [CEFTRIAXONE] registered an MIC of 1 µg/mL (≈ 1.8 µM).

(Values after ChEMBL document CHEMBL5131562, “1,3-Dioxane-Linked Novel Bacterial Topoisomerase Inhibitors: Expanding Structural Diversity and the Antibacterial Spectrum” (ACS Med Chem Lett, 2022).)
